Laboratory results taken from patent publication US11472843B2, “Malacidins and methods of use” (The Rockefeller University, priority 2017, dated 2022).

Experiments:
[1] = system: Streptococcus mutans UA159; assay: MIC assay, S. mutans; format: cell-based
Experimental: MIC assays were performed in duplicate in 96-well microtiter plates on the basis of the protocol recommended by the Clinical and Laboratory Standards Institute (Cockerill, 2012, Clinical and Laboratory Standards Institute). All presented data are the average of at least three independent assays. Stock solutions of malacidin or daptomycin (2 mg ml^−1 in H2O) were added to the first well in a row and serially diluted (twofold per transfer) across the microtiter plate. CaCl2 was supplemented to media at a final concentration of 15 mM and fetal bovine serum (ATCC) was added to media (1:10) to test the effect of serum. Overnight cultures of bacteria were diluted 5,000-fold, and 50 μl was used as an inoculum in each well. MIC values were determined by visual inspection after 18 h incubation (30° C., static growth). For the enhanced calcium titration experiments, standard MIC assays were performed with methicillin-resistant Staphylococcus aureus (MRSA) PFGE strain type USA300 in media supplemented with CaCl2 at: 25.0, 18.8, 14.1, 7.03, 3.52, 2.50, 1.76, 0.880, 0.440, 0.250 and 0 mM. To assess the effects of monovalent and divalent cations on malacidin activity, standard MIC assays were performed with MRSA USA300 in media supplemented with 15 mM CaCl2, MgCl2, MnCl2, ZnCl2, SrCl2, NaCl and KCl. […]

[2] = system: Salmonella enterica IR 715; assay: MIC assay, Salmonella enterica; format: cell-based
Experimental: MIC assays were performed in duplicate in 96-well microtiter plates on the basis of the protocol recommended by the Clinical and Laboratory Standards Institute (Cockerill, 2012, Clinical and Laboratory Standards Institute). All presented data are the average of at least three independent assays. Stock solutions of malacidin or daptomycin (2 mg ml^−1 in H2O) were added to the first well in a row and serially diluted (twofold per transfer) across the microtiter plate. CaCl2 was supplemented to media at a final concentration of 15 mM and fetal bovine serum (ATCC) was added to media (1:10) to test the effect of serum. Overnight cultures of bacteria were diluted 5,000-fold, and 50 μl was used as an inoculum in each well. MIC values were determined by visual inspection after 18 h incubation (30° C., static growth). For the enhanced calcium titration experiments, standard MIC assays were performed with methicillin-resistant Staphylococcus aureus (MRSA) PFGE strain type USA300 in media supplemented with CaCl2 at: 25.0, 18.8, 14.1, 7.03, 3.52, 2.50, 1.76, 0.880, 0.440, 0.250 and 0 mM. To assess the effects of monovalent and divalent cations on malacidin activity, standard MIC assays were performed with MRSA USA300 in media supplemented with 15 mM CaCl2, MgCl2, MnCl2, ZnCl2, SrCl2, NaCl and KCl. To evaluate the effects of pulmonary surfactants on activity against a community-acquired pneumonia-causing pathogen, standard MIC assays were performed with Streptococcus pneumoniae TCH8431 in media supplemented with both 15 mM […] and Survanta (beractant) at a final concentration of 5, 1, 0.5, 0.25 or 0% (volume/volume (v/v) percent).

[3] = system: Methicillin-resistant Staphylococcus aureus strain MW2; assay: Rat cutaneous wound infection model; format: in vivo, Sprague Dawley rats; details: topical, 0.5 mg daily in 25 mM CaCl2
Experimental: Methicillin-resistant Staphylococcus aureus strain MW2 was grown in Mueller Hinton broth at 37° C. with shaking overnight. The culture was centrifuged, supernatant aspirated and the bacteria were gently washed once in sterile saline. The optical density was determined at 600 nm. The bacterial suspension was diluted to provide a challenge inoculum of approximately 500 CFU per wound in a volume of 0.05 ml in sterile 0.9% NaCl. The inoculum count was verified by viable counts on Mannitol Salt Agar plates spread with proper dilutions of the inoculum and incubated at 37° C. for 24-48 h. For the wound infection model, 8-week-old male (˜200 g) Sprague Dawley rats were given two wounds each. Two rats were used at each time point (day 1 and day 3) for each treatment group for a total of 4 rats (8 wounds) per drug. This sample size was statistically calculated on the basis of previous in-house wound burden studies comparing vehicle-treated groups with antibiotic controls. Rats were randomly selected into the treatment groups. […] At 1 day and 3 days post infection, the rats were humanely euthanized and wounds were excised and assessed for bacterial burdens by plating on MSA. […] Abnormal clinical signs were recorded if observed.

[4] = system: MRSA USA300; assay: Membrane leakage assay (SYTOX green); format: cell-based, Staphylococcus aureus; details: 20 μg ml^−1
Experimental: The effects of malacidin on membrane integrity was assessed using SYTOX green. In brief, single colonies of MRSA USA300 were grown in LB media with and without 15 mM CaCl2 to an OD600 nm of 0.35. Nine hundred microlitres of cells were mixed with 100 μL of 17 μM SYTOX green dye (Thermo Fisher). The resulting mixture was incubated for 5 min at 22° C., and then distributed to a microtiter plate at 50 μl per well. An initial reading of fluorescence pre-antibiotic addition was measured at excitation and emission wavelengths of 488 nm and 523 nm, respectively. Fifty microlitres of antibiotics was added to respective wells at a final concentration of 20 μg ml^−1. Measurements were immediately collected for 10 min. To assess the effects of malacidin on membrane depolarization, similar assays were set up using the membrane potential probe, DiBAC4 (bis-(1,3-dibutylbarbituric acid)trimethine oxonol). Single colonies of MRSA USA300 were grown in LB media with and without 15 mM CaCl2 to an OD600 nm of 0.35. Nine hundred microlitres of cells were mixed with 100 μl of 20 μg ml DiBAC4dye (Thermo Fisher). The resulting mixture was incubated for 5 min at 22° C., and then distributed to a microtiter plate at 50 μl per well. An initial reading of fluorescence pre-antibiotic addition was measured at excitation and emission wavelengths of 492 nm and 515 nm, respectively. Fifty microlitres of antibiotics was added to respective wells at a final concentration of 20 μg ml^−1. Measurements were immediately collected for 10 min. Representative examples from three technical replicates are shown.

[5] = Complex formation with cell wall precursors (TLC mobility shift), lipid II; format: binding
Experimental: Binding of malacidin to C55-P and lipid II was evaluated by incubating 1 nmol of each purified precursor with 0.5 nmol of malacidin or daptomycin in 100 mM Tris-HCl, pH 7.5, 0.1% Triton X-100, 13 mM MgCl2, and with or without 25 mM CaCl2, for 60 min at 37° C. Subsequently, the mixture was extracted twice with n-BuOH/6 M pyridinium acetate buffer, pH 4.2 (3:1, v/v). The butanol fraction was evaporated and the residue was dissolved in CHCl3/methanol (1:1, v/v). The resuspension was analysed for the loss of unbound malacidin or daptomycin to a complex by TLC analysis using chloroform/methanol/water/ammonia (88:48:10:1, v/v/v/v) as the solvent and detection by 254/366 nm visualization. Experiments were performed with biological replicates.

malacidin A
MIC ([1]; S. mutans, 15 mM CaCl2): 0.1-0.2 μg m1^−1 | MIC ([1]; Streptococcus mutans UA159): 0.1 to 0.2 µg/mL | MIC [2]: >100 µg/mL | Bacterial burden in the wounds ([3]; 24 hours post infection): no observed bacterial burdens | Bacterial burden in the wounds ([3]; 72 hours post infection): no observed bacterial burdens | Membrane leakage (SYTOX green or DiBAC4) ([4]; absence of calcium supplementation): No membrane leakage | Membrane leakage (SYTOX green fluorescence) ([4]; with calcium (15 mM CaCl2)): does not cause MRSA membrane leakage | Lipid-II-binding activity (TLC mobility shift) ([5]; 1 nmol precursor, 0.5 nmol antibiotic): lipid-II-dependent disappearance of the malacidin band | Calcium dependence of the interaction with lipid II ([5]; with or without 25 mM CaCl2): calcium-dependent
